This passage reports viability, T/C and IC50 results from PubChem BioAssay AID1963845 (Molecular Pharmacology Branch, DTP, NCI, 2024).

Usually viability, T/C stands for the result in the treated group divided by that in the control group, in per cent. As usually defined, the IC50 is the point on the concentration scale where inhibition reaches its midpoint.

Values joined by “and” are separate entries in the source; they are usually repeats but may differ in a detail not shown here. Equal values may be shown once.

For the assay, the system named is 429239-143-T-J1-PDC complex spheroid viability. The experiment in a line: Anticancer human tumor 429239-143-T-J1-PDC patient-derived small cell lung carcinoma cell line growth inhibition [POLQ]. The note with it: for viability, T/C: stronger effect = lower value. As for the experimental part: Multicellular complex tumor spheroid response to Polymerase (POL) inhibitors (novobiocin, ART-558, RP6685) in combination with a variety of drugs and investigational agents in selected tumor cell lines
The POL inhibitors (novobiocin, ART-558, and RP6685) were evaluated both individually and in combination with standard of care and investigational anticancer small molecules within a complex spheroid model of solid tumors. . Complex spheroids include a stromal component modeled by human endothelial cells (HUVEC) and fibroblasts modeled by human mesenchymal stem cells (MSCs). The concentration ranges selected for each drug and investigational agent were based upon clinically achievable concentrations if the clinical Cmax of the agent was known.
Compounds. The drugs and investigational agents: novobiocin (NSC847541), ART-558 (NSC835418), RP-6685 (NSC848927), peposertib (NSC802822), ceralasertib (NSC780249), elimusertib (NSC800525), camonsertib (NSC841442), AZD-1390 (NSC803789), olaparib (NSC753686), talazoparib (NSC767125), rucaparib (NSC756644), sotorasib (NSC818433), MRTX-1133 (NSC836407), SN-38 (NSC673596), topotecan (NSC609699), epotoside (NSC141540), doxorubicin (NSC123127), gemcitabine (NSC613327), 5-fluorouracil (NSC19893), paclitaxel (NSC125973), vemurafenib (NSC761431), MSA-2 (NSC828583), SN-011 (NSC837082), adavosertib (NSC754352), prexasertib (NSC758257), carboplatin (NSC241240) and oxaliplatin (NSC266046), were obtained from the National Cancer Institute (NCI) Developmental Therapeutics Program Chemical Repository (21). The FDA-approved anticancer drug set is available from the Developmental Therapeutics Program at https://dtp.cancer.gov/organization/dscb/obtaining/. […] The stock solutions were prepared in dimethyl sulfoxide (DMSO, Sigma-Aldrich, St. Louis, MO, cat. D2650), except for the platinum compounds which were prepared in saline (Quality Biological, Gaithersburg, MD, cat. 114-055-101), at 800-fold the tested concentration and stored at -70 degrees C prior to their use. All drugs and investigational agents were tested over a range starting from a high concentration at or near the clinical Cmax and decreasing in half-log increments. If the clinical Cmax for an agent had not been determined, the highest concentration tested was 10 microM, except for SN-38, which was tested at a high concentration of 1 microM.
Cell Culture. All cells were maintained in an incubator at 37 degrees C and 5% CO2 with 95% humidity. The PDC lines were cultured according to standard operating procedures established by the NCI PDMR (https://pdmr.cancer.gov). Table 3 of the manuscript, lists the cell lines along with the number of the three cell types plated to form the mct-spheroids and media for tumor cell growth. After thawing, all PDC lines, except 997537-175-T-J1-PDC and 415267-285-R-J2-PDC, were cultured in Matrigel-coated flasks prepared with a working solution of 1X Ham's F-12 nutrient mix, without supplementation (Thermo Fisher Scientific, cat. 11765054), 100 U/mL penicillin-streptomycin (Thermo Fisher Scientific, cat. 15140122), and 2.5% Matrigel (Corning Inc., Corning, NY, cat. 354248) for the first three passages. The two PDC lines 997537-175-T-J1-PDC and 415267-285-R-J2-PDC were cultured on uncoated flasks. The 857933-349-R-J2-PDC line was cultured in 6C/Colon 1B media containing advanced DMEM/F-12 (Thermo Fisher Scientific, cat. 12634028), 10 mM HEPES (Thermo Fisher Scientific, cat. 15630080), 1X GlutaMAX supplement (Thermo Fisher Scientific, cat. 35050061), 0.1 mg/mL primocin (InvivoGen, San Diego, CA, cat. ant-pm-2), 10% defined fetal bovine serum, heat inactivated (HyClone Laboratories Inc., Logan, UT, cat. SH30070.03HI), 50% L-WRN conditioned media (ATCC, cat. CRL-3276), 1.25 mM N-Acetyl-L-cysteine (Sigma-Aldrich, cat. A9165), 10 mM nicotinamide (Sigma-Aldrich, cat. N0636), 1X B-27 supplement (Thermo Fisher Scientific, cat. 17504044), 1X N-2 supplement (Thermo Fisher Scientific, cat. […]

[1] abbreviates: compound alone, run of 01/19/2024.
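Further: luminescence signal used as surrogate measure of viable cells; spheroids exposed to compounds for seven days before readout.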
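Wherever viability, T/C is given: 100% = DMSO vehicle control viability as luminescence relative to vehicle.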

Regarding `COc1cc(C2c3cc4c(cc3C(OC3OC5COC(C)OC5C(O)C3O)C3COC(=O)C23)OCO4)cc(OC)c1O` (centres undefined), the viability, T/C reads like this: (compound 0.0316 µM) 99.3% and 97.8% and 98.3%; (compound 0.1 µM) 83.6% and 97.1% and 85.7%; (compound 0.316 µM) 67.2% and 76.3% and 51.2%; (compound 1 µM) 21% and 16.1% and 18%; (compound 3.16 µM) 18.4% and 7.9% and 16%; (compound 10 µM) 16.8% and 7.28% and 16.6%. Further, for the setting “curve of compound”, the IC50 is 483 nM and 523 nM and 313 nM.

Take `COc1ccc([C@@H](O)c2cc(-c3ncnc4cc(N5CCOCC5)ccc34)c(F)cc2Cl)nn1`: the viability, T/C is, setting by setting: (compound 0.0316 µM) 94.3% and 105% and 106%; (compound 0.1 µM) 96% and 95.6% and 99.2%; (compound 0.316 µM) 93.8% and 92.8% and 87.8%; (compound 1 µM) 87.6% and 96.2% and 92.5%; (compound 3.16 µM) 55.4% and 93.5% and 53.1%. Moreover, for the setting “curve of compound”, the IC50 was 3610 nM and 9970 nM and 3520 nM.

With `COc1cccc(OCCCN)c1-c1cc(Nc2cnc(C#N)cn2)n[nH]1`, the viability, T/C is, setting by setting: (compound 0.00316 µM) 92% and 99.1% and 90.2%; (compound 0.01 µM) 79.7% and 103% and 100%; (compound 0.0316 µM) 82.9% and 83.9% and 89.2%; (compound 0.1 µM) 39.7% and 73.7% and 77.4%; (compound 0.316 µM) 31% and 56.7% and 51.6%; (compound 1 µM) 23% and 27% and 41.3%. For the setting “curve of compound”, the IC50 is 76.2 nM and 390 nM and 384 nM.

`COc1cccc2c1C(=O)c1c(O)c3c(c(O)c1C2=O)CC(O)(C(=O)CO)CC3OC1CC(N)C(O)C(C)O1` (centres undefined): the viability, T/C is 64.3% and 87.3% and 71.1% (compound 0.0316 µM); 12.8% and 42.3% and 14.2% (compound 0.1 µM); 11.6% and 7.66% and 13.1% (compound 0.316 µM); 0.3% and 0.77% and 0.76% (compound 1 µM); 0.21% and 0.16% and 0.18% (compound 3.16 µM); 0.24% and 0.16% and 0.14% (compound 10 µM). Further, the IC50 (curve of compound) is 44.1 nM and 82.1 nM and 49.7 nM.

For the compound `Cc1cccc(N(C)C(=O)C2C(O)CCN2c2nc(C)cc(C(F)(F)F)c2C#N)c1` (centres undefined), the viability, T/C is 103% [middle of 13 runs] (compound 0.0316 µM); 102% [middle of 13 runs] (compound 0.1 µM); 98% [middle of 13 runs] (compound 0.316 µM); 100% [middle of 13 runs] (compound 1 µM); 104% [middle of 13 runs] (compound 3.16 µM); 106% [middle of 13 runs] (compound 10 µM). Besides, the IC50 reads like this: (compound alone, run of 01/08/2024) over 10000 nM; under setting [1], over 10000 nM.

Turning to `Cn1ncnc1[C@H]1c2n[nH]c(=O)c3cc(F)cc(c23)N[C@@H]1c1ccc(F)cc1`, the viability, T/C is, setting by setting: (compound 0.000316 µM) 101% and 105% and 93.1%; (compound 0.001 µM) 96.8% and 94.6% and 88.7%; (compound 0.00316 µM) 78% and 94.1% and 76.6%; (compound 0.01 µM) 71% and 86% and 60.1%; (compound 0.0316 µM) 40.5% and 78.3% and 47.5%; (compound 0.1 µM) 30.4% and 63.1% and 29%. Besides, under “curve of compound”, the IC50 is 23.4 nM and > 100 nM.

Consider `Nc1ccc(C#CCN(C(=O)Cc2ncc(C(F)(F)F)cc2C(F)(F)F)c2ccc(F)cc2)nn1`, for which the viability, T/C reads like this: (compound 0.0316 µM) 100% [middle of 13 runs]; (compound 0.1 µM) 103% [middle of 13 runs]; (compound 0.316 µM) 99.6% [middle of 13 runs]; (compound 1 µM) 101% [middle of 13 runs]; (compound 10 µM) 107% [middle of 13 runs]. The IC50 under setting [1] was over 10000 nM.

For the compound `Nc1ccn(C2OC(CO)C(O)C2(F)F)c(=O)n1` (centres undefined), the viability, T/C runs as follows: (compound 0.0316 µM) 20% and 68.1% and 17.7%; (compound 0.1 µM) 18.2% and 6.89% and 16%; (compound 0.316 µM) 17.5% and 6.81% and 18.4%; (compound 1 µM) 19.9% and 6.79% and 18.6%; (compound 3.16 µM) 16.3% and 6.33% and 14.9%; (compound 10 µM) 15.8% and 5.46% and 15%. In addition, the IC50 (curve of compound) is < 31.6 nM and 44.4 nM.

As for `O=C(c1cc(Cc2n[nH]c(=O)c3ccccc23)ccc1F)N1CCN(C(=O)C2CC2)CC1`, the viability, T/C (compound 0.0316 µM) is 95.1% and 91.7% and 93.1%; the viability, T/C (compound 0.1 µM) is 82.3% and 93.9% and 102%; the viability, T/C (compound 0.316 µM) is 68.2% and 72.8% and 97.3%; the viability, T/C (compound 1 µM) is 69.8% and 78% and 84.5%; the viability, T/C (compound 3.16 µM) is 30.4% and 29.6% and 69.6%; the viability, T/C (compound 10 µM) was 16.1% and 16.5% and 9.45%. Besides, the IC50 (curve of compound) was 1590 nM and 1930 nM and 4520 nM.

Consider `O=c1[nH]cc(F)c(=O)[nH]1`, for which the viability, T/C runs as follows: (compound 0.0316 µM) 89.3% and 95% and 104%; (compound 0.1 µM) 103% and 106% and 96%; (compound 0.316 µM) 92.2% and 102% and 97.8%; (compound 1 µM) 84% and 89.3% and 89.6%; (compound 3.16 µM) 70.4% and 45.9% and 66.5%; (compound 10 µM) 45.4% and 32.2% and 40.9%. Also, the IC50 (curve of compound) was 8200 nM and 2830 nM and 6660 nM.
